{"source": "DBAASP", "assay_in_all_cases": "≥ marks a high value that may be exact or a test limit, other limits are often not marked, values filed in µg/mL are converted to µM", "key": {"[1]": {"test_system": "Salmonella enterica subsp. enterica serovar Paratyphi A"}, "Bacillus cereus": {"test_system": "Bacillus cereus"}, "[2]": {"test_system": "Klebsiella pneumoniae 1400"}, "[3]": {"test_system": "Candida albicans 08030809"}, "[4]": {"test_system": "Escherichia coli ATCC 25922"}, "[5]": {"test_system": "Pseudomonas aeruginosa ATCC 27853"}, "Escherichia coli": {"test_system": "Escherichia coli"}, "[6]": {"test_system": "Staphylococcus epidermidis"}, "[7]": {"test_system": "Staphylococcus aureus 08032706"}, "[8]": {"test_system": "Candida albicans 08022710"}, "[9]": {"test_system": "Enterococcus faecalis 981"}, "[10]": {"test_system": "Enterococcus faecium 1299"}, "[11]": {"test_system": "Candida glabrata 09050201"}, "[12]": {"test_system": "Candida albicans 08030102"}, "[13]": {"test_system": "Pseudomonas aeruginosa 08031014"}, "[14]": {"test_system": "Candida albicans 08030401"}, "Nocardia asteroides": {"test_system": "Nocardia asteroides"}, "Shigella sp.": {"test_system": "Shigella sp."}, "Candida glabrata 08A802": {"test_system": "Candida glabrata 08A802"}, "Klebsiella oxytoca": {"test_system": "Klebsiella oxytoca"}, "[15]": {"test_system": "Stenotrophomonas maltophilia"}, "[16]": {"test_system": "Staphylococcus aureus 08032810"}, "[17]": {"test_system": "Staphylococcus aureus ATCC 25923"}, "[18]": {"test_system": "Staphylococcus aureus 08032712"}, "[19]": {"test_system": "Proteus vulgaris KCTC 2433"}, "[20]": {"test_system": "Listeria monocytogenes ATCC 3710"}, "[21]": {"test_system": "Staphylococcus epidermidis ATCC 12228"}, "[22]": {"test_system": "Bacillus subtilis KCTC 1998"}, "[23]": {"test_system": "Staphylococcus aureus ATCC 29213"}, "[24]": {"test_system": "Pseudomonas aeruginosa ATCC 15692"}, "Trichoderma asperellum": {"test_system": "Trichoderma asperellum"}, "Ramulariopsis gossypii": {"test_system": "Ramulariopsis gossypii"}, "[25]": {"test_system": "Pectobacterium carotovorum"}, "[26]": {"test_system": "Cryptococcus neoformans ATCC 28957"}, "[27]": {"test_system": "Xanthomonas campestris pv. citri"}, "[28]": {"test_system": "Bacillus subtilis ATCC 23857"}, "[29]": {"test_system": "Pseudomonas syringae pv. tabaci"}, "Fusarium oxysporum": {"test_system": "Fusarium oxysporum"}, "[30]": {"test_system": "Candida albicans ATCC 90028"}, "[31]": {"test_system": "Fusarium oxysporum f.sp. vasinfectum"}, "Vibrio alginolyticus": {"test_system": "Vibrio alginolyticus"}, "Streptococcus pyogenes": {"test_system": "Streptococcus pyogenes"}, "Vibrio fluvialis": {"test_system": "Vibrio fluvialis"}, "Staphylococcus aureus": {"test_system": "Staphylococcus aureus"}, "Aeromonas hydrophila": {"test_system": "Aeromonas hydrophila"}, "Vibrio parahaemolyticus": {"test_system": "Vibrio parahaemolyticus"}}, "note": "Several values for one entry are separate records, joined by “and”; a condition that tells them apart may be missing. Identical values can stand only once."}
{"smiles": "CC[C@H](C)[C@H](NC(=O)[C@H](CCCN=C(N)N)NC(=O)[C@H](Cc1c[nH]c2ccccc12)NC(=O)CNC(=O)[C@H](Cc1ccc(O)cc1)NC(=O)[C@H](CCCN=C(N)N)NC(=O)[C@H](CCCN=C(N)N)NC(=O)[C@H](C)NC(=O)[C@H](Cc1ccccc1)NC(=O)[C@H](CCCN=C(N)N)NC(=O)CNC(=O)[C@H](C)NC(=O)CNC(=O)[C@H](CCCN=C(N)N)NC(=O)[C@@H](NC(=O)[C@H](Cc1ccccc1)NC(=O)[C@H](CCCN=C(N)N)NC(=O)[C@H](CCCN=C(N)N)NC(=O)[C@H](Cc1c[nH]c2ccccc12)NC(=O)[C@H](CCCN=C(N)N)NC(=O)[C@H](CO)NC(=O)[C@H](CCCN=C(N)N)NC(=O)[C@@H](N)[C@@H](C)O)[C@@H](C)CC)C(=O)N[C@@H](C)C(=O)N[C@@H](CC(C)C)C(=O)NCC(=O)N[C@@H](CC(C)C)C(=O)N[C@H](C(=O)NCC(=O)O)C(C)C", "note": "[TRSRWRRFIRGAGRFARRYGWRIALGLVG]", "values": [{"measurement": "MIC", "setting": "[1]", "result": 10.7, "unit": "µM"}, {"measurement": "MIC", "setting": "Bacillus cereus", "result": 2.69, "unit": "µM"}, {"measurement": "MIC", "setting": "[2]", "result": 7.49, "unit": "µM"}, {"measurement": "MIC", "setting": "[3]", "result": 5.37, "unit": "µM"}, {"measurement": "MIC", "setting": "[4]", "result": 5.37, "unit": "µM"}, {"measurement": "MIC", "setting": "[5]", "result": 5.37, "unit": "µM"}, {"measurement": "MIC", "setting": "Escherichia coli", "result": 5.37, "unit": "µM"}, {"measurement": "MIC", "setting": "[6]", "result": 5.37, "unit": "µM"}, {"measurement": "MIC", "setting": "[7]", "result": 5.37, "unit": "µM"}, {"measurement": "MIC", "setting": "[8]", "result": 5.37, "unit": "µM"}, {"measurement": "MIC", "setting": "[9]", "result": 10.7, "unit": "µM"}, {"measurement": "MIC", "setting": "[10]", "result": 5.37, "unit": "µM"}, {"measurement": "MIC", "setting": "[11]", "result": 5.37, "unit": "µM"}, {"measurement": "MIC", "setting": "[12]", "result": 5.37, "unit": "µM"}, {"measurement": "MIC", "setting": "[13]", "result": 2.69, "unit": "µM"}, {"measurement": "MIC", "setting": "[14]", "result": 2.69, "unit": "µM"}, {"measurement": "MIC", "setting": "Nocardia asteroides", "result": 2.69, "unit": "µM"}, {"measurement": "MIC", "setting": "Shigella sp.", "result": 1.34, "unit": "µM"}, {"measurement": "MIC", "setting": "Candida glabrata 08A802", "result": 2.69, "unit": "µM"}, {"measurement": "MIC", "setting": "Klebsiella oxytoca", "result": 5.37, "unit": "µM"}, {"measurement": "MIC", "setting": "[15]", "result": 5.37, "unit": "µM"}, {"measurement": "MIC", "setting": "[16]", "result": 5.37, "unit": "µM"}, {"measurement": "MIC", "setting": "[17]", "result": 5.37, "unit": "µM"}, {"measurement": "MIC", "setting": "[18]", "result": 5.37, "unit": "µM"}]}
{"smiles": "CC[C@H](C)[C@H](NC(=O)CNC(=O)[C@H](Cc1cnc[nH]1)NC(=O)[C@H](CCCCN)NC(=O)[C@@H](NC(=O)[C@H](CO)NC(=O)CNC(=O)[C@@H](NC(=O)[C@H](Cc1ccccc1)NC(=O)[C@H](CCCN=C(N)N)NC(=O)[C@H](CCCCN)NC(=O)[C@@H](N)Cc1ccccc1)[C@@H](C)CC)C(C)C)C(=O)NCC(=O)N[C@@H](Cc1cnc[nH]1)C(=O)N[C@@H](CC(C)C)C(=O)N[C@H](C(=O)N[C@@H](Cc1cnc[nH]1)C(=O)N[C@@H](Cc1cnc[nH]1)C(=O)N[C@H](C(=O)NCC(=O)N[C@H](C(=O)N[C@@H](C)C(=O)N[C@@H](CC(C)C)C(N)=O)C(C)C)[C@@H](C)CC)C(C)C", "note": "[FKRFIGSVKHGIGHLVHHIGVAL]", "values": [{"measurement": "MIC", "setting": "[19]", "result": "4 µM and 8 µM"}, {"measurement": "MIC", "setting": "[4]", "result": "2 µM and 4 µM"}, {"measurement": "MIC", "setting": "[20]", "result": "16 µM and 8 µM"}, {"measurement": "MIC", "setting": "[21]", "result": "4 µM and 8 µM"}, {"measurement": "MIC", "setting": "[22]", "result": "8 µM and 16 µM"}, {"measurement": "MIC", "setting": "[23]", "result": 8, "unit": "µM"}, {"measurement": "MIC", "setting": "[24]", "result": "≥ 32", "unit": "µM"}]}
{"smiles": "CC(C)C[C@H](NC(=O)[C@H](C)NC(=O)[C@H](CCCN=C(N)N)NC(=O)[C@@H](NC(=O)[C@H](CCC(N)=O)NC(=O)[C@H](CCCCN)NC(=O)[C@H](CCCCN)NC(=O)[C@H](C)NC(=O)[C@H](CC(C)C)NC(=O)[C@H](CCCCN)NC(=O)[C@H](C)NC(=O)CN)C(C)C)C(=O)NCC(=O)N[C@@H](CCCCN)C(=O)N[C@@H](Cc1ccccc1)C(=O)N[C@@H](Cc1ccccc1)C(=O)N[C@@H](CO)C(=O)N[C@@H](Cc1ccccc1)C(N)=O", "note": "[GAKLAKKQVRALGKFFSF]", "values": [{"measurement": "MIC", "setting": "Trichoderma asperellum", "result": "≥ 128", "unit": "µM"}, {"measurement": "MIC", "setting": "Ramulariopsis gossypii", "result": 16, "unit": "µM"}, {"measurement": "MIC", "setting": "[25]", "result": "≥ 32", "unit": "µM"}, {"measurement": "MIC", "setting": "[26]", "result": "≥ 64", "unit": "µM"}, {"measurement": "MIC", "setting": "[4]", "result": 16, "unit": "µM"}, {"measurement": "MIC", "setting": "[27]", "result": "≥ 32", "unit": "µM"}, {"measurement": "MIC", "setting": "[28]", "result": 8, "unit": "µM"}, {"measurement": "MIC", "setting": "[29]", "result": 8, "unit": "µM"}, {"measurement": "MIC", "setting": "Fusarium oxysporum", "result": "≥ 256", "unit": "µM"}, {"measurement": "MIC", "setting": "[30]", "result": "≥ 128", "unit": "µM"}, {"measurement": "MIC", "setting": "[31]", "result": "≥ 64", "unit": "µM"}]}
{"smiles": "CC[C@H](C)[C@H](NC(=O)[C@H](CCCCN)NC(=O)[C@H](Cc1cnc[nH]1)NC(=O)[C@H](CC(C)C)NC(=O)[C@H](CC(C)C)NC(=O)CNC(=O)[C@H](CC(N)=O)NC(=O)[C@@H](N)C(C)C)C(=O)N[C@@H](Cc1ccc(O)cc1)C(=O)NCC(=O)N[C@@H](CC(N)=O)C(=O)N[C@H](C(=O)N[C@@H](CCCN=C(N)N)C(=O)N[C@@H](Cc1ccc(O)cc1)C(=O)N[C@@H](CO)C(=O)O)[C@@H](C)CC", "note": "[VNGLLHKIYGNIRYS]", "values": [{"measurement": "MIC", "setting": "Vibrio alginolyticus", "result": "≥ 143", "unit": "µM"}, {"measurement": "MIC", "setting": "Escherichia coli", "result": 8.93, "unit": "µM"}, {"measurement": "MIC", "setting": "Streptococcus pyogenes", "result": 8.93, "unit": "µM"}, {"measurement": "MIC", "setting": "Vibrio fluvialis", "result": "≥ 143", "unit": "µM"}, {"measurement": "MIC", "setting": "Staphylococcus aureus", "result": "> 143", "unit": "µM"}, {"measurement": "MIC", "setting": "Aeromonas hydrophila", "result": 8.93, "unit": "µM"}, {"measurement": "MIC", "setting": "Vibrio parahaemolyticus", "result": "≥ 35.8", "unit": "µM"}]}
